# Species: Rattus norvegicus
# Assay: DrugMatrix - Regimen: Daily Repeat
# Assay type: toxicity, organism-based, Sprague-Dawley
# Design: regimen Daily Repeat, gender Male, age 6-8 weeks
# Conditions: in vivo, sc, route mini-PUMP - SUBCUTANEOUS, vehicle 100 % SALINE; for TOTAL PROTEIN / ALANINE AMINOTRANSFERASE / ALBUMIN / ALKALINE PHOSPHATASE / ASPARTATE AMINOTRANSFERASE / BLOOD UREA NITROGEN / CARBON DIOXIDE / CHLORIDE / CHOLESTEROL / LACTATE DEHYDROGENASE / LIPASE / PHOSPHORUS / POTASSIUM / SODIUM / CREATININE / TOTAL BILIRUBIN: tissue Plasma; for ABSOLUTE BASOPHIL / ABSOLUTE EOSINOPHIL / ABSOLUTE LYMPHOCYTE / ABSOLUTE MONOCYTE / ABSOLUTE SEGMENTED NEUTROPHIL / BASOPHIL / EOSINOPHIL / ERYTHROCYTE COUNT / HEMOGLOBIN / LEUKOCYTE COUNT / LYMPHOCYTE / MEAN CORPUSCULAR HEMOGLOBIN / MEAN CORPUSCULAR HEMOGLOBIN CONCENTRATION / MEAN CORPUSCULAR VOLUME / NUCLEATED RED BLOOD CELLS / PLATELET COUNT: tissue Blood
# [1] = 0 mg/kg, 120 h, dose level Control, time 5 day
# [2] = 0 mg/kg, […], dose level Control, time 14 day
# [3] = […], dose 0.77 mg/Kg, dose level High, time 14 day
smiles,measurement,setting,value
CNC[C@H](O)c1ccc(O)c(O)c1 [EPINEPHRINE],TOTAL PROTEIN,"0 mg/kg, 72 h, dose level Control, time 3 day",6.05 G/DL
same,ABSOLUTE BASOPHIL,[1],0 CELLS/uL
same,ABSOLUTE EOSINOPHIL,[1],0 CELLS/uL
same,ABSOLUTE LYMPHOCYTE,[1],14257.33 CELLS/uL
same,ABSOLUTE MONOCYTE,[1],326 CELLS/uL
same,ABSOLUTE SEGMENTED NEUTROPHIL,[1],3216.67 CELLS/uL
same,BASOPHIL,[1],0%
same,EOSINOPHIL,[1],0%
same,ERYTHROCYTE COUNT,[1],6.11 x10E6/uL
same,HEMOGLOBIN,[1],13.18 G/DL
same,LEUKOCYTE COUNT,[1],17.8 x10E3/uL
same,LYMPHOCYTE,[1],80.5%
same,MEAN CORPUSCULAR HEMOGLOBIN,[1],21.62 pg
same,MEAN CORPUSCULAR HEMOGLOBIN CONCENTRATION,[1],36.42 G/DL
same,MEAN CORPUSCULAR VOLUME,[1],59.37 fL
same,NUCLEATED RED BLOOD CELLS,[1],0 /100WBC
same,PLATELET COUNT,[1],1311 x10E3/uL
same,ALANINE AMINOTRANSFERASE,[1],47 u/L
same,ALBUMIN,[1],3.83 G/DL
same,ALKALINE PHOSPHATASE,[1],260.33 u/L
same,ASPARTATE AMINOTRANSFERASE,[1],76.17 u/L
same,BLOOD UREA NITROGEN,[1],14.67 mg/dL
same,CARBON DIOXIDE,[1],31.33 mmol/L
same,CHLORIDE,[1],101.17 MEQ/L
same,CHOLESTEROL,[1],75 mg/dL
same,LACTATE DEHYDROGENASE,[1],147.33 u/L
same,LIPASE,[1],9.33 u/L
same,PHOSPHORUS,[1],10.97 mg/dL
same,POTASSIUM,[1],6 MEQ/L
same,SODIUM,[1],145.52 MEQ/L
same,TOTAL PROTEIN,[1],5.83 G/DL
same,ABSOLUTE BASOPHIL,[2],0 CELLS/uL
same,ABSOLUTE EOSINOPHIL,[2],64.5 CELLS/uL
same,ABSOLUTE LYMPHOCYTE,[2],12507.83 CELLS/uL
same,ABSOLUTE MONOCYTE,[2],380.33 CELLS/uL
same,ABSOLUTE SEGMENTED NEUTROPHIL,[2],2414 CELLS/uL
same,BASOPHIL,[2],0%
same,EOSINOPHIL,[2],0.5%
same,ERYTHROCYTE COUNT,[2],6.1 x10E6/uL
same,HEMOGLOBIN,[2],12.88 G/DL
same,LEUKOCYTE COUNT,[2],15.37 x10E3/uL
same,LYMPHOCYTE,[2],80.83%
same,MEAN CORPUSCULAR HEMOGLOBIN,[2],21.18 pg
same,MEAN CORPUSCULAR HEMOGLOBIN CONCENTRATION,[2],36.43 G/DL
same,MEAN CORPUSCULAR VOLUME,[2],58.17 fL
same,NUCLEATED RED BLOOD CELLS,[2],0.17 /100WBC
same,PLATELET COUNT,[2],1016 x10E3/uL
same,ALANINE AMINOTRANSFERASE,[2],53.33 u/L
same,ALBUMIN,[2],3.93 G/DL
same,ALKALINE PHOSPHATASE,[2],319.83 u/L
same,ASPARTATE AMINOTRANSFERASE,[2],84 u/L
same,BLOOD UREA NITROGEN,[2],15.5 mg/dL
same,CARBON DIOXIDE,[2],34 mmol/L
same,CHLORIDE,[2],101.83 MEQ/L
same,CHOLESTEROL,[2],57 mg/dL
same,CREATININE,[2],0.21 mg/dL
same,LACTATE DEHYDROGENASE,[2],104.67 u/L
same,LIPASE,[2],9.17 u/L
same,PHOSPHORUS,[2],11.12 mg/dL
same,POTASSIUM,[2],5.81 MEQ/L
same,SODIUM,[2],144.85 MEQ/L
same,TOTAL BILIRUBIN,[2],0.18 mg/dL
same,TOTAL PROTEIN,[2],5.92 G/DL
same,ABSOLUTE BASOPHIL,[3],0 CELLS/uL
same,ABSOLUTE EOSINOPHIL,[3],121.6 CELLS/uL
same,ABSOLUTE LYMPHOCYTE,[3],13213.6 CELLS/uL
same,ABSOLUTE MONOCYTE,[3],369.4 CELLS/uL
same,ABSOLUTE SEGMENTED NEUTROPHIL,[3],2115.4 CELLS/uL
same,BASOPHIL,[3],0%
same,EOSINOPHIL,[3],0.8%
same,ERYTHROCYTE COUNT,[3],6.78 x10E6/uL
same,HEMOGLOBIN,[3],14.32 G/DL
same,LEUKOCYTE COUNT,[3],15.82 x10E3/uL
same,LYMPHOCYTE,[3],84.2%
same,MEAN CORPUSCULAR HEMOGLOBIN,[3],21.14 pg
same,MEAN CORPUSCULAR HEMOGLOBIN CONCENTRATION,[3],36.3 G/DL
same,MEAN CORPUSCULAR VOLUME,[3],58.22 fL
same,NUCLEATED RED BLOOD CELLS,[3],0 /100WBC
same,PLATELET COUNT,[3],976 x10E3/uL
same,ALANINE AMINOTRANSFERASE,[3],53.2 u/L
same,ALBUMIN,[3],4.38 G/DL
same,ALKALINE PHOSPHATASE,[3],383.4 u/L
same,ASPARTATE AMINOTRANSFERASE,[3],82 u/L
same,BLOOD UREA NITROGEN,[3],15.6 mg/dL
same,CARBON DIOXIDE,[3],34.2 mmol/L
same,CHLORIDE,[3],99.8 MEQ/L
same,CHOLESTEROL,[3],80.2 mg/dL
same,CREATININE,[3],0.21 mg/dL
same,LACTATE DEHYDROGENASE,[3],111.2 u/L
same,LIPASE,[3],9 u/L
same,PHOSPHORUS,[3],11.84 mg/dL
same,POTASSIUM,[3],6.19 MEQ/L
same,SODIUM,[3],147.16 MEQ/L
same,TOTAL BILIRUBIN,[3],0.14 mg/dL
same,TOTAL PROTEIN,[3],6.7 G/DL

# — ChEMBL document CHEMBL3885881, “DrugMatrix”
